According to patent US20100210561A1, “USE OF PEPTIDE AS A THERAPEUTIC AGENT” (priority 2007, published 2010):
Where no end group is shown, it is not given here. [ ]: non-standard residue; d: D form. The star is where a group is joined. tBu = CC(C)(C)*

Experiments:
HIV-1IIIB = experiment: HIV-1 antiviral assay in CEM-SS cells (MTS readout); conditions: positive controls
[1] = system: Tumor Necrosis Factor-α (TNF-α); experiment: Th1/Th2 cytokine profiling assay: TNF-α; format: cell-based, Balb/c mice; conditions: Ovalbumin-restimulated spleen cells, 72 hours
Interleukin-4 (IL-4) = experiment: Th1/Th2 cytokine profiling assay: IL-4; format: cell-based, Balb/c mice; conditions: Ovalbumin-restimulated spleen cells, 72 hours
HUVEC = experiment: Endothelial tube formation assay; format: cell-based, human; conditions: 10 micrograms per ml, 20 hours
Experimental: The endothelial tube formation assay is based on the ability of endothelial cells to form three-dimensional capillary-like tubular structures when cultured on a gel of basement membrane extract. […] Positive control was vehicle only. The endothelial cells were allowed to form tubes foe 20 hours and were then examined under an inverted fluorescent microscope. Duplicate wells for each treatment were photographed and quantitatevily analyzed for an average tubule length using image analysis software ImageProPlus. Raw data were expressed as average tubule lengths in pixels±standard deviation. Statistic p values were computed using the Student's t-test.

Interferon-γ (IFN-γ) = experiment: Th1/Th2 cytokine profiling assay: IFN-γ; format: cell-based, Balb/c mice; conditions: Ovalbumin-restimulated spleen cells, 72 hours
Interleukin-2 (IL-2) = experiment: Th1/Th2 cytokine profiling assay: IL-2; format: cell-based, Balb/c mice; conditions: Ovalbumin-restimulated spleen cells, 72 hours
[2] = system: hepatitis B virus (HBV) ayw strain; experiment: HBV assay in HepG2-2.2.15 cells (secreted HBV DNA, TaqMan PCR); format: cell-based; conditions: 10 micrograms per ml, six days, HBV DNA in supernatant
HCMV strain AD169 = experiment: HCMV plaque formation assay in MRC-5 cells; format: cell-based, human cytomegalovirus; conditions: 10 micrograms per ml, 7-10 days

Row | Compound | antiviral activity of positive control compounds (HIV-1IIIB) | TNF-a spleen cells; TH1 response (% of control) [1] | induction of the production of TNF-alpha in murine spleen cells [1] [%] | IL-4 spleen cells; TH2 response (% of control) (Interleukin-4 (IL-4)) | decrease of the production of IL-4 in murine spleen cells (Interleukin-4 (IL-4)) [%] | inhibition of the tube formation of human endothelial cells (HUVEC) [%] | IFNγ spleen cells; TH1 response (% of control) (Interferon-γ (IFN-γ)) | induction of the production of IFN-γ in murine spleen cells (Interferon-γ (IFN-γ)) | IL-2 spleen cells (% of control) (Interleukin-2 (IL-2)) | induction of the production of IL-2 in murine spleen cells (Interleukin-2 (IL-2)) | inhibition of HBV replication as compared to the virus control infection [2] [%] | inhibition of HCMV plaque formation as compared to the virus control experiment (HCMV strain AD169) [%]
1 | Cc1cn([C@H]2C[C@H](N=[N+]=[N-])[C@@H](CO)O2)c(=O)[nH]c1=O [AZT] | expected levels of antiviral activity |  |  |  |  |  |  |  |  |  |  | 
2 | CC(C)(C)NC(=O)[C@@H]1CN(Cc2cccnc2)CCN1C[C@@H](O)C[C@@H](Cc1ccccc1)C(=O)N[C@H]1c2ccccc2C[C@H]1O [indinavir] | expected levels of antiviral activity |  |  |  |  |  |  |  |  |  |  | 
3 | Y[dC](tBu)GFLT(tBu)-OH [Peptide 1] |  | 123.7 % of control | 23.7 | 65.0 % of control | 35.0 | 4 | 107.6 % of control | did not significantly change | 115.0 % of control | did not significantly change | 24.2 | 46.5
